# Source: patent US10434147B2, “Treatment type 2 diabetes mellitus patients” (Sanofi-Aventis Deutschland GmbH, priority 2015, dated 2019)
# Assays:
# [1] = test system: obese type 2 diabetes mellitus patients poorly controlled with a basal insulin alone or with one to three oral anti-diabetic drugs; test: 12-week insulin glargine titration (run-in); type: in vivo, human; settings: 12 weeks titration, optionally with metformin
# [2] = test system: Patients with Type 2 Diabetes Insufficiently Controlled with Insulin Glargine with or without Metformin; test: Body weight, 26-week study; type: in vivo, human; settings: once daily or three times daily; in words
# Excerpt: FIG. 6—Graphical study design. ^1 Insulin glargine should be injected subcutaneously once daily at dinner or breakfast time (according to patient's/investigators' preference). […] Meal used for insulin glulisine dosing should remain the same throughout the 26-week treatment period. ^4 Injection of insulin glulisine prior to breakfast, lunch and dinner.
# Co-primary endpoints at 26 weeks were (1) non-inferiority (95% CI upper bound <0.4%) in HbA1c reduction with LIXI vs GLU-1 and (2) for LIXI vs GLU-3, either non-inferiority in HbA1c reduction (2a) OR superiority (one-sided α≤0.025) in body weight change (2b). FPG, PPG, IG dose, composite outcomes, AEs, and hypoglycemia were assessed.
Substance,fasting glucose plasma concentration after titration of insulin glargine ([1]; initial reduction from 9.16 mmol/L),HbA1c after titration of insulin glargine ([1]; initial reduction from 8.51%),Effect of the comparative treatment on body weight [2]
Gly(A21)-Arg(B31)-Arg(B32) human insulin [insulin glargine],6.91 mmol/L,7.87%,–
"insulin glulisine: prandial insulin, comparative treatment once daily or three times daily",–,–,significant weight gain
